system: not listed separately; test: logP determination by HPLC (EEC directive 79/831 Annex V. A8); type: physicochemical; details: HPLC gradient method, acetonitrile/0.1% aqueous phosphoric acid; Table 1
Procedure: *) The logP values were determined in accordance with EEC directive 79/831 Annex V. A8 by HPLC (gradient method, acetonitrile/0.1% aqueous phosphoric acid)

SMILES | logP*
CC(C)CN(N)c1c(-c2c(Cl)cc(C(F)(F)F)cc2Cl)c(Cl)nc2ncnn12 [Example 136] | 3.85
NN(CC1CC1)c1c(-c2c(F)cc(F)cc2F)c(Cl)nc2ncnn12 [Example 159] | 2.66
Fc1cccc(F)c1-c1c(Cl)nc2ncnn2c1NOCc1ccc(Cl)cc1 [Example 47] | 3.14
NN(CC1CCC1)c1c(-c2c(F)cccc2Cl)c(Cl)nc2ncnn12 [Example 173] | 3.07
Fc1cc(F)c(-c2c(Cl)nc3ncnn3c2NOCc2c(Cl)cccc2Cl)c(F)c1 [Example 86] | 3.32
CCN(N)c1c(-c2c(F)cc(F)cc2F)c(Cl)nc2ncnn12 [Example 17] | 2.27
Fc1cc(F)c(-c2c(Cl)nc3ncnn3c2NOCc2cccc(Cl)c2)c(F)c1 [Example 82] | 3.27
Fc1cc(F)c(-c2c(Cl)nc3ncnn3c2NOCc2ccc(OC(F)(F)F)cc2)c(F)c1 [Example 11] | 3.54
CCC(C)NNc1c(-c2cccc(C(F)(F)F)c2Cl)c(Cl)nc2ncnn12 (stereo not shown) [Example 145] | 3.37
N#CCCNNc1c(-c2ccccc2F)c(Cl)nc2ncnn12 [Example 94] | 1.82
CCC(C)ONc1c(-c2c(F)cccc2F)c(Cl)nc2ncnn12 (stereo not shown) [Example 48] | 2.67
Fc1cccc(F)c1-c1c(Cl)nc2ncnn2c1NOCc1ccccc1Cl [Example 106] | 3.07
NN(CC1CC1(Cl)Cl)c1c(-c2c(F)cccc2Cl)c(Cl)nc2ncnn12 (stereo not shown) [Example 171] | 3.11
CC(C)CN(N)c1c(-c2ccc(F)cc2Cl)c(Cl)nc2ncnn12 [Example 172] | 3.15
NN(c1c(-c2c(F)cc(F)cc2F)c(Cl)nc2ncnn12)C1CCCCC1 [Example 125] | 3.33
CCC(C)NNc1c(-c2cc(C(F)(F)F)ccc2Cl)c(Cl)nc2ncnn12 (stereo not shown) [Example 147] | 3.95
CON(C)c1c(-c2c(F)cccc2F)c(Cl)nc2ncnn12 [Example 28] | 2.43
NN(CC1CC1)c1c(-c2c(Cl)cccc2Cl)c(Cl)nc2ncnn12 [Example 164] | 2.8
Fc1ccccc1-c1c(Cl)nc2ncnn2c1NOCc1ccccc1 [Example 95] | 2.83
CCC(C)N(N)c1c(-c2cccc3c2OC(F)(F)O3)c(Cl)nc2ncnn12 (stereo not shown) [Example 150] | 3.27
NN(CCN1CCOCC1)c1c(-c2c(F)cc(F)cc2F)c(Cl)nc2ncnn12 [Example 129] | 1.1
CCCCNNc1c(-c2ccccc2F)c(Cl)nc2ncnn12 [Example 90] | 2.77
CON(C)c1c(-c2c(F)cc(F)cc2F)c(Cl)nc2ncnn12 [Example 16] | 2.63
Fc1cccc(F)c1-c1c(Cl)nc2ncnn2c1NOCc1ccccc1 [Example 103] | 2.8

SMILES | logP*
Fc1ccc(CONc2c(-c3c(F)c(F)c(F)c(F)c3F)c(Cl)nc3ncnn23)cc1 [Example 72] | 3.3
CC(C)N(N)c1c(-c2c(F)cc(F)cc2F)c(Cl)nc2ncnn12 [Example 133] | 2.62
Fc1c(F)c(F)c(-c2c(Cl)nc3ncnn3c2NOCc2ccccc2Cl)c(F)c1F [Example 116] | 3.58
CCONc1c(-c2c(F)cccc2F)c(Cl)nc2ncnn12 [Example 102] | 2.18
CCOC(=O)NN(CC(C)C)c1c(-c2c(F)cc(F)cc2F)c(Cl)nc2ncnn12 [Example 168] | 2.99
CC(C)ON(C)c1c(-c2c(F)cccc2F)c(Cl)nc2ncnn12 [Example 34] | 3.01
CCC(C)N(N)c1c(-c2cccc(C(F)(F)F)c2Cl)c(Cl)nc2ncnn12 (stereo not shown) [Example 144] | 3.44
CC(C)N(N)c1c(-c2ccc(C(F)(F)F)cc2F)c(Cl)nc2ncnn12 [Example 134] | 3.08
CCONc1c(-c2c(F)cc(F)cc2F)c(Cl)nc2ncnn12 [Example 40] | 2.33
CCONc1c(-c2c(F)c(F)c(F)c(F)c2F)c(Cl)nc2ncnn12 [Example 70] | 2.73
Fc1cc(F)c(-c2c(Cl)nc3ncnn3c2NOCOc2ccc(Cl)nc2)c(F)c1 [Example 15] | 2.43
CON(C)c1c(-c2ccccc2F)c(Cl)nc2ncnn12 [Example 68] | 2.33
Fc1c(F)c(F)c(-c2c(Cl)nc3ncnn3c2NOCc2ccc(C(F)(F)F)cc2)c(F)c1F [Example 115] | 3.77
CC(C)CN(N)c1c(-c2c(F)cccc2Cl)c(Cl)nc2ncnn12 [Example 138] | 2.94
Fc1c(F)c(F)c(-c2c(Cl)nc3ncnn3c2NOCc2c(Cl)cccc2Cl)c(F)c1F [Example 120] | 3.65
CC(C)CCNNc1c(-c2c(F)cc(F)cc2F)c(Cl)nc2ncnn12 [Example 78] | 3.25
CC(C)(C)ONc1c(-c2ccccc2F)c(Cl)nc2ncnn12 [Example 65] | 2.58
Fc1ccccc1-c1c(Cl)nc2ncnn2c1NOCc1cc(Cl)cc(Cl)c1 [Example 96] | 3.69
Clc1cccc(Cl)c1-c1c(Cl)nc2ncnn2c1NNC1CCCC1 [Example 160] | 3.21
CONc1c(-c2c(F)cccc2F)c(Cl)nc2ncnn12 [Example 32] | 1.92
CC(C)CNNc1c(-c2c(Cl)c(F)cc(C(F)(F)F)c2Cl)c(Cl)nc2ncnn12 [Example 44] | 3.89
CNN(C)c1c(-c2ccccc2F)c(Cl)nc2ncnn12 [Example 88] | 2.13
NN(CC1CC1)c1c(-c2c(F)cccc2Cl)c(Cl)nc2ncnn12 [Example 162] | 2.63
CC(C)CN(N)c1c(-c2c(F)cc(F)cc2F)c(Cl)nc2ncnn12.Cl [Example 153] | 2.88

SMILES | logP*
Fc1cc(F)c(-c2c(Cl)nc3ncnn3c2NOCc2ccc(C(F)(F)F)cc2)c(F)c1 [Example 10] | 3.38
COCCN(N)c1c(-c2c(F)cc(F)cc2F)c(Cl)nc2ncnn12 [Example 128] | 2.26
CCCCONc1c(-c2c(F)cc(F)cc2F)c(Cl)nc2ncnn12 [Example 85] | 3.01
Fc1cccc(F)c1-c1c(Cl)nc2ncnn2c1NOCc1cccc(Cl)c1 [Example 46] | 3.12
CCCCONc1c(-c2c(F)c(F)c(F)c(F)c2F)c(Cl)nc2ncnn12 [Example 119] | 3.49
CC(C)(C)ONc1c(-c2c(F)cc(F)cc2F)c(Cl)nc2ncnn12 [Example 43] | 2.75
CONc1c(-c2c(F)c(F)c(F)c(F)c2F)c(Cl)nc2ncnn12 [Example 121] | 2.53
Fc1c(F)c(F)c(-c2c(Cl)nc3ncnn3c2NOCc2ccccc2)c(F)c1F [Example 112] | 3.37
Fc1cc(F)c(-c2c(Cl)nc3ncnn3c2NOCc2ccccc2)c(F)c1 [Example 12] | 2.92
NN(CC1CC1(Cl)Cl)c1c(-c2c(F)cc(F)cc2F)c(Cl)nc2ncnn12 (stereo not shown) [Example 166] | 3.11
Fc1cc(F)c(-c2c(Cl)nc3ncnn3c2NOCc2cccc(C(F)(F)F)c2)c(F)c1 [Example 84] | 3.39
Fc1cc(F)c(-c2c(Cl)nc3ncnn3c2NOCc2cc(Cl)cc(Cl)c2)c(F)c1 [Example 80] | 3.73
CC(C)CONc1c(-c2c(F)cccc2F)c(Cl)nc2ncnn12 [Example 8] | 2.78
Fc1ccccc1-c1c(Cl)nc2ncnn2c1NOC1CCCCO1 (stereo not shown) [Example 66] | 2.46
CC(C)CNNc1c(-c2c(Cl)cccc2Cl)c(Cl)nc2ncnn12 [Example 156] | 3.18
Fc1c(F)c(F)c(-c2c(Cl)nc3ncnn3c2NOCc2ccc(Cl)cc2)c(F)c1F [Example 71] | 3.62
CCC(C)N(N)c1c(-c2cc(C(F)(F)F)ccc2Cl)c(Cl)nc2ncnn12 (stereo not shown) [Example 148] | 3.53
Fc1ccccc1-c1c(Cl)nc2ncnn2c1NOCc1ccccc1Cl [Example 59] | 3.06
CC(C)CN(N)c1c(-c2c(Cl)cccc2Cl)c(Cl)nc2ncnn12 [Example 155] | 3.17
Fc1cc(F)c(-c2c(Cl)nc3ncnn3c2NNC2CCCC2)c(F)c1 [Example 55] | 2.98
NN(c1c(-c2c(Cl)cccc2Cl)c(Cl)nc2ncnn12)C1CCCC1 [Example 161] | 3.37
CC(C)ONc1c(-c2c(F)c(F)c(F)c(F)c2F)c(Cl)nc2ncnn12 [Example 122] | 3.04
N#CCCNNc1c(-c2c(F)cc(F)cc2F)c(Cl)nc2ncnn12 [Example 23] | 2.03
C=CCONc1c(-c2ccccc2F)c(Cl)nc2ncnn12 [Example 64] | 2.27

same assay, conditions: HPLC; preparation examples; read-out: HPLC: logP

SMILES | chromatographic logP
C[C@H](N(SC(F)(Cl)Cl)c1c(-c2c(F)cc(F)cc2F)c(Cl)nc2ncnn12)C(F)(F)F [Example 3, 5-chloro-7-{{[dichloro(fluoro)methyl]sulphanyl}[(1S)-2,2,2-trifluoro-1-methylethyl]amino}-6-(2,4,6-trifluorophenyl)[1,2,4]triazolo[1,5-a]pyrimidine] | 4.74

same assay, conditions: Table 2, carbamates of formula (VIII)

SMILES | logP
C=C(C)CN(OC)C(=O)OCC [Example 179] | 2.06

system: Alternaria solani; test: Alternaria test (tomato)/protective; type: in vivo; details: protective, 750 g/ha, evaluation 7 days after inoculation
Procedure: To produce an appropriate preparation of active compound, 1 part by weight of active compound is mixed with the stated amounts of solvent and emulsifier, and the concentrate is diluted with water to the desired concentration.
To test for protective activity, young tomato plants are sprayed with the active compound preparation at the application rate indicated. One day after treatment, the plants are inoculated with a spore suspension of Alternaria solani and then stand at 100% relative humidity and 20° C. for 24 h. The plants subsequently stand at 96% relative humidity and a temperature of 20° C.
Evaluation is made 7 days after inoculation. 0% denotes an efficacy corresponding to that of the control while an efficacy of 100% means that no infestation is observed.

SMILES | Efficacy in % [%]
CCN(N)c1c(-c2c(F)cc(F)cc2F)c(Cl)nc2ncnn12 [drawing 48] | 89
NN(CC1CCCCC1)c1c(-c2c(F)cc(F)cc2F)c(Cl)nc2ncnn12 [drawing 50] | 94
CCCN(N)c1c(-c2c(F)cc(F)cc2F)c(Cl)nc2ncnn12 [drawing 47] | 94
CC(C)(C)NNc1c(-c2c(F)cc(F)cc2F)c(Cl)nc2ncnn12 [drawing 51] | 94
C=CCNNc1c(-c2c(F)cc(F)cc2F)c(Cl)nc2ncnn12 [drawing 49] | 94
